#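 All cell lines were grown in 96-well plates and treated with compound for 48 hours. TGI: concentration producing complete growth inhibition.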
# Columns and labels:
# Experiment in all cases: NCI-60 cell line screen, 48 h
# [1] = system: ACHN renal
# [2] = system: 786-0 renal
# [3] = system: MOLT-4 leukemia
# [4] = system: NCI-H23 lung
# [5] = system: HCC-2998 colon
# [6] = system: SF-539 CNS
# [7] = system: OVCAR-4 ovarian
# [8] = system: HCT-15 colon
# [9] = system: NCI/ADR-RES ovarian
# [10] = system: OVCAR-8 ovarian
# [11] = system: HCT-116 colon
# [12] = system: SK-MEL-2 melanoma
# [13] = system: MDA-N
# [14] = system: HT29 colon
# [15] = system: HOP-62 NSCLC
# [16] = system: HL-60(TB) leukemia
# [17] = system: A549 NSCLC
# [18] = system: DMS 273 small cell lung
# [19] = system: NCI-H226 lung
# [20] = system: OVCAR-5 ovarian
# [21] = system: SR leukemia
# [22] = system: K-562 leukemia
# [23] = system: UACC-62 melanoma
# [24] = system: MDA-MB-231 breast
# [25] = system: SK-OV-3 ovarian
# [26] = system: LXFL 529 NSCLC
# [27] = system: BT-549 breast
# [28] = system: HS 578T breast
# [29] = system: U251 CNS
# [30] = system: SK-MEL-28 melanoma
# [31] = system: M19-MEL melanoma
# [32] = system: RPMI-8226 leukemia
# [33] = system: DLD-1 colon
# [34] = system: HOP-92 NSCLC
# [35] = system: NCI-H460 lung
# [36] = system: T-47D breast
# [37] = system: SNB-75 CNS
# [38] = system: LOX IMVI melanoma
# [39] = system: SNB-78 CNS
# [40] = system: CAKI-1 renal
# [41] = system: SF-268 CNS
# [42] = system: SW-620 colon
# [43] = system: MDA-MB-435
# [44] = system: CCRF-CEM leukemia
# [45] = system: RXF 393 renal
# [46] = system: DU-145 prostate
# [47] = system: UO-31 renal
# [48] = system: HOP-18 NSCLC
# [49] = system: NCI-H522 lung
# [50] = system: A498 renal
# [51] = system: SF-295 CNS
# [52] = system: MALME-3M melanoma
# [53] = system: RXF-631 renal
# [54] = system: EKVX NSCLC
# [55] = system: TK-10 renal
# [56] = system: M14 melanoma
# [57] = system: COLO 205 colon
# [58] = system: KM12 colon
# [59] = system: OVCAR-3 ovarian
# [60] = system: SN12C renal
# [61] = system: PC-3 prostate
# [62] = system: SNB-19 CNS
# [63] = system: SK-MEL-5 melanoma
# [64] = system: KM20L2 colon
# [65] = system: UACC-257 melanoma
# [66] = system: DMS 114 small cell lung
# [67] = system: IGROV1 ovarian
# [68] = system: MCF7 breast
# [69] = system: XF 498 CNS
structure (smiles),measurement,setting,value
COC(=O)Cc1cc(O)c2c(c1O)C(=O)c1ccccc1C2=O,TGI,[1],> 77.9 µM
same,TGI,[2],> 77.1 µM
same,TGI,[3],> 100 µM
same,TGI,[4],> 100 µM
same,TGI,[5],> 100 µM
same,TGI,[6],> 100 µM
same,TGI,[7],> 100 µM
same,TGI,[8],> 100 µM
same,TGI,[9],> 100 µM
same,TGI,[10],> 100 µM
same,TGI,[11],> 100 µM
same,TGI,[12],> 100 µM
same,TGI,[13],> 100 µM
same,TGI,[14],> 46.4 µM
same,TGI,[15],63.3 µM
same,TGI,[16],> 100 µM
same,TGI,[17],> 100 µM
same,TGI,[18],> 100 µM
same,TGI,[19],> 100 µM
same,TGI,[20],> 100 µM
same,TGI,[21],> 100 µM
same,TGI,[22],> 100 µM
same,TGI,[23],> 100 µM
same,TGI,[24],97.5 µM
same,TGI,[25],> 100 µM
same,TGI,[26],> 100 µM
same,TGI,[27],> 100 µM
same,TGI,[28],> 84.5 µM
same,TGI,[29],> 93.2 µM
same,TGI,[30],> 100 µM
same,TGI,[31],> 100 µM
same,TGI,[32],> 100 µM
same,TGI,[33],> 100 µM
same,TGI,[34],56 µM
same,TGI,[35],> 100 µM
same,TGI,[36],> 100 µM
same,TGI,[37],49 µM
same,TGI,[38],> 100 µM
same,TGI,[39],> 100 µM
same,TGI,[40],> 100 µM
same,TGI,[41],> 100 µM
same,TGI,[42],> 100 µM
same,TGI,[43],> 100 µM
same,TGI,[44],> 100 µM
same,TGI,[45],63.7 µM
same,TGI,[46],> 100 µM
same,TGI,[47],> 100 µM
same,TGI,[48],> 100 µM
same,TGI,[49],> 100 µM
same,TGI,[50],> 87.1 µM
same,TGI,[51],> 72.4 µM
same,TGI,[52],> 100 µM
same,TGI,[53],> 100 µM
same,TGI,[54],> 100 µM
same,TGI,[55],> 79.9 µM
same,TGI,[56],> 100 µM
same,TGI,[57],> 100 µM
same,TGI,[58],> 100 µM
same,TGI,[59],> 100 µM
same,TGI,[60],> 100 µM
same,TGI,[61],> 100 µM
same,TGI,[62],> 85.5 µM
same,TGI,[63],> 100 µM
same,TGI,[64],> 100 µM
same,TGI,[65],> 100 µM
same,TGI,[66],> 100 µM
same,TGI,[67],> 100 µM
same,TGI,[68],> 56.3 µM
C=C(c1ccccc1)C1(O)CCCCC1N (stereo not drawn),TGI,[1],> 100 µM
same,TGI,[2],> 100 µM
same,TGI,[3],> 100 µM
same,TGI,[4],> 100 µM
same,TGI,[5],> 100 µM
same,TGI,[6],> 100 µM
same,TGI,[7],> 100 µM
same,TGI,[8],> 100 µM
same,TGI,[10],> 100 µM
same,TGI,[11],> 100 µM
same,TGI,[12],> 100 µM
same,TGI,[14],> 100 µM
same,TGI,[15],> 100 µM
same,TGI,[16],43.5 µM
same,TGI,[17],> 100 µM
same,TGI,[18],> 100 µM
same,TGI,[19],> 100 µM
same,TGI,[20],> 100 µM
same,TGI,[21],72.8 µM
same,TGI,[22],> 100 µM
same,TGI,[23],> 100 µM
same,TGI,[25],> 100 µM
same,TGI,[26],> 100 µM
same,TGI,[29],> 100 µM
same,TGI,[30],> 100 µM
same,TGI,[31],> 100 µM
same,TGI,[32],> 100 µM
same,TGI,[33],> 100 µM
same,TGI,[34],> 100 µM
same,TGI,[35],> 100 µM
same,TGI,[37],> 100 µM
same,TGI,[38],> 100 µM
same,TGI,[39],> 100 µM
same,TGI,[40],> 100 µM
same,TGI,[41],> 100 µM
same,TGI,[42],> 100 µM
same,TGI,[44],95.3 µM
same,TGI,[45],> 100 µM
same,TGI,[47],> 100 µM
same,TGI,[48],> 100 µM
same,TGI,[69],> 100 µM
same,TGI,[49],> 100 µM
same,TGI,[50],> 100 µM
same,TGI,[51],> 100 µM
same,TGI,[52],> 100 µM
same,TGI,[54],> 100 µM
same,TGI,[55],> 100 µM
same,TGI,[56],> 100 µM
same,TGI,[57],> 100 µM
same,TGI,[58],> 100 µM
same,TGI,[59],> 100 µM
same,TGI,[60],> 100 µM
same,TGI,[62],> 100 µM
same,TGI,[63],> 100 µM
same,TGI,[64],> 100 µM
same,TGI,[65],> 100 µM
same,TGI,[66],> 100 µM
same,TGI,[67],> 100 µM
O=C(COc1ccccc1Cl)N1N=C(c2ccc(Cl)cc2)CC1(O)c1ccccc1 (stereo not drawn),TGI,[1],> 100 µM
same,TGI,[2],> 100 µM
same,TGI,[3],> 100 µM
same,TGI,[4],> 100 µM
same,TGI,[5],> 100 µM
same,TGI,[6],> 100 µM
same,TGI,[7],> 100 µM
same,TGI,[8],> 100 µM
same,TGI,[10],> 100 µM
same,TGI,[11],> 100 µM
same,TGI,[12],> 100 µM
same,TGI,[14],> 100 µM
same,TGI,[15],> 100 µM
same,TGI,[16],> 100 µM
same,TGI,[17],> 100 µM
same,TGI,[18],> 100 µM
same,TGI,[19],> 100 µM
same,TGI,[20],> 100 µM
same,TGI,[21],> 100 µM
same,TGI,[22],> 100 µM
same,TGI,[23],> 100 µM
same,TGI,[25],> 100 µM
same,TGI,[26],> 100 µM
same,TGI,[29],> 100 µM
same,TGI,[30],> 100 µM
same,TGI,[31],> 100 µM
same,TGI,[32],> 100 µM
same,TGI,[33],> 100 µM
same,TGI,[34],> 100 µM
same,TGI,[35],> 100 µM
same,TGI,[37],> 100 µM
same,TGI,[38],> 100 µM
same,TGI,[39],> 100 µM
same,TGI,[40],> 100 µM
same,TGI,[41],> 100 µM
same,TGI,[42],> 100 µM
same,TGI,[47],> 100 µM
same,TGI,[69],> 100 µM
same,TGI,[49],> 100 µM
same,TGI,[51],> 100 µM
same,TGI,[52],> 100 µM
same,TGI,[53],> 100 µM
same,TGI,[55],> 100 µM
same,TGI,[56],> 100 µM
same,TGI,[57],> 100 µM
same,TGI,[58],> 100 µM
same,TGI,[59],> 100 µM
same,TGI,[60],> 100 µM
same,TGI,[62],> 100 µM
same,TGI,[64],> 100 µM
same,TGI,[65],> 100 µM
same,TGI,[67],> 100 µM
